Data: patent publication EP2435433B1, “(DIHYDRO)IMIDAZOISO[5,1-A]QUINOLINES AS FSH RECEPTOR AGONISTS FOR THE TREATMENT OF FERTILITY DISORDERS” (Merck Sharp & Dohme B.V., priority 2009, dated 2010)

Molecular target: T1, human FSH receptor (Homo sapiens, UniProt P23945)
T1 construct: expressed in transfected cells; host or cells: Chinese Hamster Ovary (CHO) cells, stably transfected, cotransfected with CRE/promotor-firefly luciferase reporter
T1 sequence (P23945 18-695): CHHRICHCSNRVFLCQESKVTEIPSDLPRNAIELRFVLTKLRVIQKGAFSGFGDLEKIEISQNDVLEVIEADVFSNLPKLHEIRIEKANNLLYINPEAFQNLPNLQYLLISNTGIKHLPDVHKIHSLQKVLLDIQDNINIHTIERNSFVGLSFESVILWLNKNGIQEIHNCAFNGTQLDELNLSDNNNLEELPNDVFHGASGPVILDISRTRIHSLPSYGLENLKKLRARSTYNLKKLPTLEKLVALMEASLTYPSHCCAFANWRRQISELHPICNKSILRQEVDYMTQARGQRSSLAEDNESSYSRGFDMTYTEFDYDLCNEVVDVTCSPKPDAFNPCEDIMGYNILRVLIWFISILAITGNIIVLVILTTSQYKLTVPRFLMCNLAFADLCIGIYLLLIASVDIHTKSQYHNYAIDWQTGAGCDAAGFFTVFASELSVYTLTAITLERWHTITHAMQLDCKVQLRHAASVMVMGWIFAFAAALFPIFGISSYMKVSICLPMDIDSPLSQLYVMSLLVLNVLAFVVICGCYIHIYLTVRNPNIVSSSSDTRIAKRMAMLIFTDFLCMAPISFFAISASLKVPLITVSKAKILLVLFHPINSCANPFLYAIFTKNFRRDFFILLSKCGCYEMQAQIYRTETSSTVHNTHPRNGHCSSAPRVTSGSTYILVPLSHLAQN
Test: Agonistic activity of compounds at the human FSH receptor expressed in CHO cells, CRE/luciferase reporter (hFSHRago (CHO luc))
Type: cell-based
Conditions: CHO cells stably transfected with the human FSH receptor and CRE/firefly luciferase reporter; 4 hours of incubation; half-maximal stimulation relative to the compound's own maximal effect; read-out: hFSHRago (CHO luc) EC50
From the text: The term EC50 means the concentration of the test compound that elicits half-maximal (50 %) stimulation compared to the compound's maximally attainable effect. The values can be determined e.g. in a cell line transfected with a FSH receptor gene and cotransfected with a cAMP responsive element/promoter directing the expression of a reporter gene. Values can be determined using a software program such as MathIQ (version 2.0, ID Business Solutions Limited).
Agonistic activity of the compounds at the human FSH receptor was determined in Chinese Hamster Ovary (CHO) cells stably transfected with the human FSH receptor and cotransfected with a cAMP responsive element (CRE)/promotor directing the expression of a firefly luciferase reporter gene. Binding of the compounds to the Gs protein-coupled FSH receptor will result in an increase of cAMP, which in turn will induce an increased transactivation of the luciferase reporter. Cells (7,500 cells/well of a 384 well plate) were incubated in Dulbecco' minimal essential F12 modified medium (Invitrogen), supplemented with 1 µg/ml bovine insulin, 5 µg/ml human apo-transferrin, 80 U/ml penicillin G and 80 µg/ml streptomycin with the test compounds (concentration between 0.0316 nM and 10.0 µM) in duplicate in a humidified atmosphere (95%) at 5-7% CO2 and 37°C. The final concentration of DMSO was 1%. After 4 hours of incubation, plates were allowed to adjust to room temperature for 1 hour. Then, Luclite (PerkinElmer) solution was added to the wells and cells were allowed to lyse for at least 1 hour at room temperature. Subsequently, luciferase activity was measured in a luminescence counter. The signal is expressed as counts per second (cps). The EC50 (concentration of the test compound that elicits half-maximal (50 %) luciferase stimulation compared to the compound's maximally attainable effect) and efficacy values (maximal effect of the test compound as percentage of the maximal effect of recombinant human FSH) of the compounds were determined using the software program MathIQ (version 2.0, ID Business Solutions Limited). EC50 data are indicated at the synthesis examples.

Going from `COc1cc2c(cc1N)-c1c(-c3cccs3)nc(C(=O)N(C)C(C)(C)C)n1CC2` [Example 6b, 9-Amino-8-methoxy-1-thiophen-2-yl-5,6-dihydro-imidazo[5,1-a]isoquinoline-3-carboxylic acid tert-butyl-methyl-amide] to `COc1cc2c(cc1CC(C)C)-c1c(-c3cccs3)nc(C(=O)N(C)C(C)(C)C)n1CC2` [Example 18k, 9-Isobutyl-8-methoxy-1-thiophen-2-yl-5,6-dihydro-imidazo[5,1-a]isoquinoline-3-carboxylic acid tert-butyl-methyl-amide], the EC50 falls from 740 nM to 8 nM (92-fold).

`COc1cc2c(cc1NC(=O)C(C)O)-c1c(-c3cccs3)nc(C(=O)N(C)C(C)(C)C)n1CC2` (centres unmarked) [Example 7, 9-(2-Hydroxy-propionylamino)-8-methoxy-1-thiophen-2-yl-5,6-dihydro-imidazo[5,1-a]isoquinoline-3-carboxylic acid tert-butyl-methyl-amide] and `COc1cc2c(cc1NC(=O)[C@H](C)N)-c1c(-c3cccs3)nc(C(=O)N(C)C(C)(C)C)n1CC2` [Example 8, 9-((S)-2-Amino-propionylamino)-8-methoxy-1-thiophen-2-yl-5,6-dihydro-imidazo[5,1-a]isoquinoline-3-carboxylic acid tert-butyl-methyl-amide] are within 1.5-fold of each other in EC50: 35 nM for the first, 49 nM for the second.

First: COc1cc2c(cc1NC(=O)c1cccnc1)-c1c(-c3cccs3)nc(C(=O)N(C)C(C)(C)C)n1CC2 [Example 9, 8-Methoxy-9-[(pyridine-3-carbonyl)-amino]-1-thiophen-2-yl-5,6-dihydro-imidazo[5,1-a]isoquinoline-3-carboxylic acid tert-buyl-methyl-amide]
Second: COc1cc2c(cc1NC(=O)c1nccs1)-c1c(-c3cccs3)nc(C(=O)N(C)C(C)(C)C)n1CC2 [Example 10, 8-Methoxy-9-[(thiazole-2-carbonyl)-amino]-1-thiophen-2-yl-5,6-dihydro-imidazo[5,1-a]isoquinoline-3-carboxylic acid tert-butyl-methyl-amide]
The EC50 of the first is 19-fold higher: 224 nM for the first, 12 nM for the second.

`COc1cc2c(cc1NC(=O)c1cscn1)-c1c(-c3cccs3)nc(C(=O)N(C)C(C)(C)C)n1CC2` [Example 11, 8-Methoxy-9-[(thiazole-4-carbonyl)-amino]-1-thiophen-2-yl-5,6-dihydro-imidazo[5,1-a]isoquinoline-3-carboxylic acid tert-butyl-methyl-amide] and `COc1cc2c(cc1NC(=O)c1csnn1)-c1c(-c3cccs3)nc(C(=O)N(C)C(C)(C)C)n1CC2` [Example 12, 8-Methoxy-9-[([1,2,3]thiadiazole-4-carbonyl)-amino]-1-thiophen-2-yl-5,6-dihydro-imidazo[5,1-a]isoquinoline-3-carboxylic acid tert-butyl-methyl-amide] are within 1.5-fold of each other in EC50: 13 nM for the first, 15 nM for the second.

First: CCN(C)CC(=O)Nc1cc2c(cc1OC)CCn1c(C(=O)N(C)C(C)(C)C)nc(-c3cccs3)c1-2 [Example 13b, 9-[2-(Ethyl-methyl-amino)-acetylamino]-8-methoxy-1-thiophen-2-yl-5,6-dihydro-imidazo[5,1-a]isoquinoline-3-carboxylic acid tert-butyl-methyl-amide]
Second: COc1cc2c(cc1NC(=O)CN1CCOCC1)-c1c(-c3cccs3)nc(C(=O)N(C)C(C)(C)C)n1CC2 [Example 14, 8-Methoxy-9-(2-morpholin-4-yl-acetylamino)-1-thiophen-2-yl-5,6-dihydro-imidazo[5,1-a]isoquinoline-3-carboxylic acid tert-butyl-methyl-amide]
The EC50 of the first is 2.6-fold higher: 26 nM for the first, 10 nM for the second. The second is the more potent here.

Compared with `COc1cc2ccn3c(C(=O)N(C)C(C)(C)C)nc(-c4cccs4)c3c2cc1C=C(C)C` [Example 16e, 8-Methoxy-9-(2-methyl-propenyl)-1-thiophen-2-yl-imidazo[5,1-a]isoquinoline-3-carboxylic acid tert-butyl-methyl-amide], `COc1cc2ccn3c(C(=O)N(C)C(C)(C)C)nc(-c4cccs4)c3c2cc1-c1cnn(C)c1` [Example 17b, 8-Methoxy-9-(1-methyl-1H-pyrazol-4-yl)-1-thiophen-2-yl-imidazo[5,1-a]isoquinoline-3-carboxylic acid tert-butyl-methyl-amide] is 2.6-fold higher in EC50: 9 nM for the first, 23 nM for the second. The first is the more potent here.

Going from `C=Cc1cc2c(cc1CC(C)C)-c1c(-c3cccs3)nc(C(=O)N(C)C(C)(C)C)n1CC2` [Example 19d, 9-Isobutyl-1-thiophen-2-yl-8-vinyl-5,6-dihydro-imidazo[5,1-a]isoquinoline-3-carboxylic acid tert-butyl-methyl-amide] to `CCc1cc2c(cc1CC(C)C)-c1c(-c3cccs3)nc(C(=O)N(C)C(C)(C)C)n1CC2` [Example 19e, 8-Ethyl-9-isobutyl-1-thiophen-2-yl-5,6-dihydro-imidazo[5,1-a]isoquinoline-3-carboxylic acid tert-butyl-methyl-amide], the EC50 rises from 76 nM to 200 nM (2.6-fold). The first is the more potent here.

First: CC(C)Cc1ccc2c(c1)-c1c(-c3cccs3)nc(C(=O)N(C)C(C)(C)C)n1CC2 [Example 20b, 9-Isobutyl-1-thiophen-2-yl-5,6-dihydro-imidazo[5,1-a]isoquinoline-3-carboxylic acid tert-butyl-methyl-amide]
Second: CCN(C(=O)c1nc(-c2cccs2)c2n1CCc1cc(OC)c(OC(C)C)cc1-2)C(C)(C)C [Example 21f, 9-Isopropoxy-8-methoxy-1-thiophen-2-yl-5,6-dihydro-imidazo[5,1-a]isoquinoline-3-carboxylic acid tert-butyl-ethyl-amide]
The EC50 of the first is 450-fold higher: 407 nM for the first, 0.9 nM for the second.

Compared with `COc1cc2c(cc1OC(C)C)-c1c(-c3cccs3)nc(C(=O)N3CCCC3(C)C)n1CC2` [Example 22, (2,2-Dimethyl-pyrrolidin-1-yl)-(9-isopropoxy-8-methoxy-1-thiophen-2-yl-5,6-dihydro-imidazo[5,1-a]isoquinolin-3-yl)-methanone], `CCC1CCCN1C(=O)c1nc(-c2cccs2)c2n1CCc1cc(OC)c(OC(C)C)cc1-2` (centres unmarked) [Example 23, (2-Ethyl-pyrrolidin-1-yl)-(9-isopropoxy-8-methoxy-1-thiophen-2-yl-5,6-dihydro-imidazo[5,1-a]isoquinolin-3-yl)-methanone] is 21-fold higher in EC50: 3 nM for the first, 63 nM for the second. The first is the more potent here.

`COc1cc2c(cc1OC)-c1c(-c3cccs3)nc(C(=O)N3CCCC3C)n1CC2` (centres unmarked) [Example 24c, (2-Methyl-pyrrolidin-1-yl)-(9-methoxy-8-methoxy-1-thiophen-2-yl-5,6-dihydro-imidazo[5,1-a]isoquinolin-3-yl)-methanone] and `COc1cc2c(cc1OC)-c1c(-c3cccs3)nc(C(=O)N3CCCOCC3)n1CC2` [Example 26, (8,9-Dimethoxy-1-thiophen-2-yl-5,6-dihydro-imidazo[5,1-a]isoquinolin-3-yl)-[1,4]oxazepan-4-yl-methanone] are within 1.5-fold of each other in EC50: 333 nM for the first, 314 nM for the second.

Compared with `COc1cc2c(cc1OC)-c1c(-c3cccs3)nc(C(=O)N(CCO)C(C)C)n1CC2` [Example 25, 8,9-Dimethoxy-1-thiophen-2-yl-5,6-dihydro-imidazo[5,1-a]isoquinoline-3-carboxylic acid (2-hydroxy-ethyl)-isopropyl-amide], `COc1cc2c(cc1OC(C)C)-c1c(-c3cccs3)nc(C(=O)N3CC4CC(CN(C(C)=O)C4)C3)n1CC2` [Example 29c, 1-[7-(9-Isopropoxy-8-methoxy-1-thiophen-2-yl-5,6-dihydro-imidazo[5,1-a]isoquinoline-3-carbonyl)-3,7-diaza-bicyclo[3.3.1]non-3-yl]-ethanone] is 6.6-fold lower in EC50: 138 nM for the first, 21 nM for the second.

`COc1cc2c(cc1OC(C)C)-c1c(-c3cccs3)nc(C(=O)N3CC4CC(C3)CN(C(=O)C3CCC3)C4)n1CC2` [Example 29d, (7-Cyclobutanecarbonyl-3,7-diaza-bicyclo[3.3.1]non-3-yl)-(9-isopropoxy-8-methoxy-1-thiophen-2-yl-5,6-dihydro-imidazo[5,1-a]isoquinolin-3-yl)-methanone] was tested, and the EC50 was 5 nM.
